Measurements published in ChEMBL document CHEMBL5149970 (J Med Chem, 2021).
The source made the active and inactive calls. The calls are words filed in the database; no cut-off is given here.

Assays:
CFU-GM = test: Inhibition of colony formation in human CFU-GM cells assessed as reduction in colony number and size at 1 uM incubated for 14 days by crystal violet staining based analysis; format: toxicity, cell-based; conditions: 336 h, time 14 day
[1] = Inhibition of colony formation in human BFU-E cells assessed as reduction in colony number and size at 1 uM incubated for 14 days by crystal violet staining based analysis; format: toxicity, cell-based; conditions: 336 h, time 14 day
EU-1 [2] = test: Inhibition of MDM2/XIAP IRES mRNA interaction in human EU-1 cells assessed as increase in p53 protein expression at 1 uM measured after 2 to 24 hrs by western blot analysis; format: cell-based; conditions: time 2-24 hrs
EU-1 [3] = test: Inhibition of MDM2/XIAP IRES mRNA interaction in human EU-1 cells assessed as increase in p53 protein expression measured after 24 hrs by western blot analysis; format: cell-based; conditions: dose 0.25-2 µM, DDE = dose-dependent effect
[4] = Antiproliferative activity against human EU-1 cells assessed as inhibition of cell growth incubated for 48 hrs by WST assay; format: functional, cell-based; conditions: EU-1, 48 h
[5] = Antiproliferative activity against human EU-3 cells assessed as reduction in cell survival incubated for 48 hrs by WST assay; format: functional, cell-based; conditions: EU-3, 48 h
[6] = Antiproliferative activity against human NB-1643 cells assessed as reduction in cell survival incubated for 48 hrs by WST assay; format: functional, cell-based; conditions: NB-1643, 48 h
[7] = Antiproliferative activity against human SH-EP1 cells assessed as reduction in cell survival incubated for 48 hrs by WST assay; format: functional, cell-based; conditions: SH-EP1, 48 h
[8] = Antiproliferative activity against human LA1-55n cells assessed as reduction in cell survival incubated for 48 hrs by WST assay; format: functional, cell-based
NB-1643 = test: Inhibition of colony formation in human NB-1643 cells assessed as reduction in colony number and size at 0.25 to 4 uM incubated for 2 weeks by crystal violet staining based analysis; format: functional, cell-based; conditions: dose 0.25-4 µM
SH-EP1 = test: Inhibition of colony formation in human SH-EP1 cells assessed as reduction in colony number and size at 0.25 to 4 uM incubated for 2 weeks by crystal violet staining based analysis; format: functional, cell-based; conditions: dose 0.25-4 µM
LA1-55n = test: Inhibition of colony formation in human LA1-55n cells assessed as reduction in colony number and size at 0.25 to 4 uM incubated for 2 weeks by crystal violet staining based analysis; format: functional, cell-based; conditions: dose 0.25-4 µM
EU-1 [9] = test: Inhibition of MDM2/XIAP IRES mRNA interaction in human EU-1 cells assessed as induction of MDM2 degradation by measuring downregulation of MDM2 protein expression incubated for 24 hrs by western blot analysis; format: cell-based; conditions: dose 0.25-2 µM, DDE = dose-dependent effect
EU-1 [10] = test: Inhibition of MDM2/XIAP IRES mRNA interaction in human EU-1 cells assessed as induction of MDM2 degradation by measuring downregulation of MDM2 protein expression at 1 uM measured after 2 to 24 hrs by western blot analysis; format: cell-based; conditions: time 2-24 hrs
EU-1 [11] = test: Inhibition of MDM2/XIAP IRES mRNA interaction in human EU-1 cells assessed as downregulation of XIAP protein expression incubated for 24 hrs by western blot analysis; format: cell-based; conditions: dose 0.25-2 µM, DDE = dose-dependent effect
EU-1 [12] = test: Inhibition of MDM2/XIAP IRES mRNA interaction in human EU-1 cells assessed as downregulation of XIAP protein expression at 1 uM measured after 2 to 24 hrs by western blot analysis; format: cell-based; conditions: time 2-24 hrs
EU-1 [13] = test: Inhibition of MDM2/XIAP IRES mRNA interaction in human EU-1 cells assessed as induction of MDM2 degradation by measuring downregulation of MDM2 protein expression at 1 uM measured after 8 hrs by western blot analysis; format: cell-based
EU-1 [14] = test: Inhibition of MDM2/XIAP IRES mRNA interaction in human EU-1 cells assessed as induction of MDM2 degradation by measuring fold change in MDM2 protein expression at 1 uM measured after 30 mins by CHX chase assay (reference value: 0.92); format: cell-based
EU-1 [15] = test: Inhibition of MDM2/XIAP IRES mRNA interaction in human EU-1 cells assessed as induction of MDM2 degradation by measuring fold change in MDM2 protein expression at 1 uM measured after 60 mins by CHX chase assay (reference value: 0.85); format: cell-based
EU-1 [16] = test: Inhibition of MDM2/XIAP IRES mRNA interaction in human EU-1 cells assessed as induction of MDM2 degradation by measuring fold change in MDM2 protein expression at 1 uM measured after 90 mins by CHX chase assay (reference value: 0.76); format: cell-based
EU-1 [17] = test: Inhibition of MDM2/XIAP IRES mRNA interaction in human EU-1 cells assessed as induction of MDM2 degradation by measuring fold change in MDM2 protein expression at 1 uM measured after 120 mins by CHX chase assay (reference value: 0.69); format: cell-based
EU-1 [18] = test: Inhibition of MDM2/XIAP IRES mRNA interaction in human EU-1 cells assessed as fold change in p53 protein expression at 1 uM measured after 30 mins by CHX chase assay (reference value: 0.38); format: cell-based
EU-1 [19] = test: Inhibition of MDM2/XIAP IRES mRNA interaction in human EU-1 cells assessed as fold change in p53 protein expression at 1 uM measured after 60 mins by CHX chase assay (reference value: 0.19); format: cell-based
EU-1 [20] = test: Inhibition of MDM2/XIAP IRES mRNA interaction in human EU-1 cells assessed as fold change in p53 protein expression at 1 uM measured after 90 mins by CHX chase assay (reference value: 0.13); format: cell-based
EU-1 [21] = test: Inhibition of MDM2/XIAP IRES mRNA interaction in human EU-1 cells assessed as fold change in p53 protein expression at 1 uM measured after 120 mins by CHX chase assay (reference value: 0.08); format: cell-based
EU-1 [22] = test: Inhibition of MDM2/XIAP IRES mRNA interaction in human EU-1 cells assessed as induction of MDM2 self-ubiquitination at 1 uM measured for 90 mins by immunoprecipitation-western blot analysis; format: cell-based
EU-1 [23] = test: Inhibition of MDM2/XIAP IRES mRNA interaction in human EU-1 cells assessed as increase in p53 protein expression at 1 uM measured after 8 hrs by western blot analysis; format: cell-based
EU-1 [24] = test: Inhibition of MDM2/XIAP IRES mRNA interaction in human EU-1 cells assessed as increase in p21 protein expression at 1 uM measured after 8 hrs by western blot analysis; format: cell-based
EU-1 [25] = test: Inhibition of MDM2/XIAP IRES mRNA interaction in human EU-1 cells assessed as increase in PUMA protein expression at 1 uM measured after 8 hrs by western blot analysis; format: cell-based
EU-1 [26] = test: (§1) Inhibition of MDM2/XIAP IRES mRNA interaction in human EU-1 cells assessed as inhibition of XIAP mRNA translation by measuring reduction in state of polyribosome association of XIAP mRNA in cytoplasmic lysate at 1 uM measured after 4 hrs by linear sucrose gradient fractionation based qRT-PCR analysis; format: subcellular; conditions: Cytoplasm
EU-1 [27] = test: as §1, with “increase” for “reduction in state of polyribosome association of XIAP mRNA”, “fraction containing translation-inactive complexes, mono ribosomes” for “lysate”; format: subcellular; conditions: Cytoplasm
EU-1 [28] = test: Inhibition of MDM2/XIAP IRES mRNA interaction in human EU-1 cells assessed as increase in caspase-3 cleavage at 1 uM measured after 8 hrs by western blot analysis; format: cell-based
EU-1 [29] = test: Inhibition of MDM2/XIAP IRES mRNA interaction in human EU-1 cells assessed as increase in caspase-9 cleavage at 1 uM measured after 8 hrs by western blot analysis; format: cell-based
EU-1 [30] = test: Inhibition of MDM2/XIAP IRES mRNA interaction in human EU-1 cells assessed as increase in PARP cleavage at 1 uM measured after 8 hrs by western blot analysis; format: cell-based
[31] = Cmax in Sprague-Dawley rat at 10 mg/kg, iv measured for 24 hrs by LC-MS/MS analysis; format: ADME, organism-based; design: dose 10 mg/kg, time 24 hrs, route iv; conditions: in vivo
[32] = AUC in Sprague-Dawley rat at 10 mg/kg, iv measured for 24 hrs by LC-MS/MS analysis; format: ADME, organism-based; design: dose 10 mg/kg, time 24 hrs, route iv; conditions: in vivo
[33] = Clearance in Sprague-Dawley rat at 10 mg/kg, iv measured for 24 hrs by LC-MS/MS analysis; format: ADME, organism-based; conditions: in vivo
[34] = Volume of distribution in Sprague-Dawley rat at 10 mg/kg, iv measured for 24 hrs by LC-MS/MS analysis; format: ADME, organism-based; conditions: in vivo
[35] = Elimination half life in Sprague-Dawley rat at 10 mg/kg, iv measured for 24 hrs by LC-MS/MS analysis; format: ADME, organism-based; conditions: in vivo
[36] = AUC in Sprague-Dawley rat at 25 mg/kg, po measured for 24 hrs by LC-MS/MS analysis; format: ADME, organism-based; design: time 24 hrs, dose 25 mg/kg, route po; conditions: in vivo
[37] = Oral bioavailability in Sprague-Dawley rat at 25 mg/kg measured for 24 hrs by LC-MS/MS analysis; format: ADME, organism-based; conditions: in vivo
EU-1 [38] = conditions: Homo sapiens, dose 1.0 µM, time 4.0 hrs
EU-1 [39] = conditions: Homo sapiens, dose 1.0 µM, time 4.0 hrs; remark: listed apart in the source

For Cc1ccc(NS(=O)(=O)c2ccc3c(c2)C2OCCC2C(c2ccc(C(=O)C(C)C)cc2)N3)cc1C (stereo not drawn), which Activity (CFU-GM) is on record?
The Activity was “Non-Toxic”.

And the Activity [1]?
The Activity was “Non-Toxic”.

What about the inhibition (EU-1 [2]) of the same molecule?
Its inhibition is “Active”.

What about the inhibition (EU-1 [3]) of the same molecule?
The inhibition was “Dde”.

And the IC50 [4]?
The IC50 was 300 nM.

And the IC50 [5]?
The IC50 was 300 nM.

What about the IC50 [6] of the same molecule?
The IC50 was 500 nM.

What about the IC50 [7] of the same molecule?
Its IC50 is 500 nM.

And the IC50 [8]?
Its IC50 is 500 nM.

And the inhibition (NB-1643)?
Its inhibition is “Active”.

What about the inhibition (SH-EP1) of the same molecule?
The inhibition was “Active”.

What about the inhibition (LA1-55n) of the same molecule?
Its inhibition is “Active”.

And the inhibition (EU-1 [9])?
Its inhibition is “Dde”.

What about the inhibition (EU-1 [10]) of the same molecule?
Its inhibition is “Active”.

What about the inhibition (EU-1 [11]) of the same molecule?
Its inhibition is “Dde”.

What about the inhibition (EU-1 [12]) of the same molecule?
The inhibition was “Active”.

What about the inhibition (EU-1 [13]) of the same molecule?
Its inhibition is “Active”.

And the fold change (FC) (EU-1 [14])?
The fold change (FC) was 0.78.

And the fold change (FC) (EU-1 [15])?
Its fold change (FC) is 0.47.

What about the fold change (FC) (EU-1 [16]) of the same molecule?
Its fold change (FC) is 0.25.

What about the fold change (FC) (EU-1 [17]) of the same molecule?
The fold change (FC) was 0.13.

And the fold change (FC) (EU-1 [18])?
The fold change (FC) was 1.06.

And the fold change (FC) (EU-1 [19])?
The fold change (FC) was 1.09.

What about the fold change (FC) (EU-1 [20]) of the same molecule?
Its fold change (FC) is 1.15.

What about the fold change (FC) (EU-1 [21]) of the same molecule?
Its fold change (FC) is 1.14.

What about the inhibition (EU-1 [22]) of the same molecule?
The inhibition was “Active”.

What about the inhibition (EU-1 [23]) of the same molecule?
Its inhibition is “Active”.

And the inhibition (EU-1 [24])?
Its inhibition is “Active”.

What about the inhibition (EU-1 [25]) of the same molecule?
Its inhibition is “Active”.

What about the inhibition (EU-1 [26]) of the same molecule?
The inhibition was “Active”.

And the inhibition (EU-1 [27])?
Its inhibition is “Active”.

And the inhibition (EU-1 [28])?
Its inhibition is “Active”.

What about the inhibition (EU-1 [29]) of the same molecule?
Its inhibition is “Active”.

What about the inhibition (EU-1 [30]) of the same molecule?
Its inhibition is “Active”.

What about the Cmax [31] of the same molecule?
Its Cmax is 8200 ng/mL.

And the AUC [32]?
Its AUC is 4750 ng·h/mL.

What about the CL [33] of the same molecule?
The CL was 35.3 mL/min/kg.

And the Vd [34]?
Its Vd is 2.88 L/kg.

And the “beta t1/2” value [35]?
The value was 0.94 h.

And the AUC [36]?
The AUC was 710 ng·h/mL.

And the F [37]?
The F was 5.9%.

What about the T1/2 (EU-1 [38]) of the same molecule?
The T1/2 was less than 1 h.

And the T1/2 (EU-1 [39])?
Its T1/2 is greater than 2 h.
